According to patent US20120101160A1, “Use of chemical chaperones to treat glaucoma caused by misfolded or misprocessed proteins” (Alcon, Inc., priority 2004, published 2012):

Tests used:
[1] = target: ΔF508 cystic fibrosis transmembrane conductance regulator protein (CFTR) (Homo sapiens, UniProt P13569, DEL508-508); conditions: cells expressing ΔF508 CFTR; similar to cells expressing the wild-type CFTR protein; cited from earlier work
mutant (Q368X) myocilin = target: T1, mutant (Q368X) myocilin (Homo sapiens, UniProt Q99972); assay: secretion of mutant myocilin in cultured CHO cells (Western blot of media and lysates); type: cell-based; conditions: CHO stable transfectants expressing Q368X myocilin; overnight incubation with chemical chaperone; glycerol 10%; E and I lanes; FIG. 1/FIG. 2
T1 construct: expressed in transfected cells
T1 sequence (Q99972 33-367 limits assumed): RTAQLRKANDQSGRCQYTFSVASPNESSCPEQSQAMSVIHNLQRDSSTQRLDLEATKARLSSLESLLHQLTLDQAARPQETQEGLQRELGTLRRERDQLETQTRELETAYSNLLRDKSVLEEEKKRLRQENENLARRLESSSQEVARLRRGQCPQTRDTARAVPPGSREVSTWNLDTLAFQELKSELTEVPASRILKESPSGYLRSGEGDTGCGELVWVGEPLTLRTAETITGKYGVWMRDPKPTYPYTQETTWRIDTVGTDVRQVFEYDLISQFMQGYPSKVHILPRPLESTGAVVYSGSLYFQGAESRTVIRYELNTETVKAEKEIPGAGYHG
From the text: (§1) Wild-type myocilin is normally expressed and secreted from the human TM, whereas mutant disease-causing myocilin is retained intracellularly (Jacobson, Andrews et al. 2001). […] We tested several compounds for their ability to effect secretion of mutant myocilin in cultured CHO cells that were engineered for their ability to express, but not secrete, mutant (Y437H or Q368X) myocilin. Plasmids expressing wild-type or mutant myocilin were generated as described (Jacobson, Andrews et al. 2001).
(§2) CHO stable transfectants were grown in F12K media containing 10% FBS supplemented with penicillin-streptomycin-glutamine. Stable transfectants were generated by transfection with lipofectamine plus (Invitrogen) followed by limiting dilution plating and selection in G-418 (600 ug/ml). CHO cells were incubated with serum-free media 24 h post-transfection and media or cell lysates were collected after overnight incubation with the chemical chaperone. Equivalent cell lysate protein amounts (5 ug) were loaded for SDS-PAGE analysis. Cell media was not concentrated and was loaded at 16 ul per lane for SDS-PAGE/Western blot analysis.
(§3) Cells were rinsed with PBS and solubilized in a commercial mammalian extraction buffer (M-Per™; Pierce, Rockford, Ill.) supplemented with a protease inhibitor cocktail (Complete, EDTA-free; Boehringer Mannheim, Indianapolis, Ind.) followed by centrifugation at 12,000×g for 5 min. Protein concentration of the supernatant was determined with Coomasie Plus Protein Assay Reagent (Pierce). Cell extracts were stored at −20° C.
(§4) Cell media or extracts were analyzed using pre-cast NuPAGE polyacrylamide gels and the Novex gel electrophoresis system (Novex, San Diego, Calif.). Proteins were electroblotted to Hybond-P PVDF membranes (Amersham Pharmacia Biotech, Piscataway, N.J.), blocked with gelatin, and probed with affinity purified rabbit anti-MYOC antibody 129 (generated to myocilin peptide 156-171) (Jacobson, Andrews et al. 2001) and an anti-rabbit IgG secondary antibody (Amersham). Immunoreactivity was detected with the ECL Plus detection system (Amersham). Blots were exposed to BioMax MR film (Eastman Kodak, Rochester, N.Y.) and scanned with a Hewlett-Packard ScanJet ADF scanner (Hewlett Packard, Boise, Id.) for figure presentation.

mutant (Y437H) myocilin = target: T2, mutant (Y437H) myocilin (Homo sapiens, UniProt Q99972, Y437H); assay: as above; type: cell-based; conditions: CHO stable transfectants expressing Y437H myocilin; overnight incubation with chemical chaperone; glycerol 10%; E lane; FIG. 1/FIG. 2
T2 construct: expressed in transfected cells
T2 sequence (Q99972 33-504 Y437H): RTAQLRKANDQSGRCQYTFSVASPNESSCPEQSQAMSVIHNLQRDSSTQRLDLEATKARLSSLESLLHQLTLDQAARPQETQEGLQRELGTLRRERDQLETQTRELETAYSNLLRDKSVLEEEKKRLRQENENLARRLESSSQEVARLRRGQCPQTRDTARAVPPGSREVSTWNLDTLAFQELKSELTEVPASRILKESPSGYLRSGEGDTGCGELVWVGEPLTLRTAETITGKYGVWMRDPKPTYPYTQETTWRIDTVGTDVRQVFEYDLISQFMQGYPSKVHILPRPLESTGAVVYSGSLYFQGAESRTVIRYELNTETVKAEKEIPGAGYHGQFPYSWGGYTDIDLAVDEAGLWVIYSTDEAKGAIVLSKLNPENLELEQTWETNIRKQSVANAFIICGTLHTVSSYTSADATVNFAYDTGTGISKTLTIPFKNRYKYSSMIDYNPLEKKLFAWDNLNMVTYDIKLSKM
From the text: as §1, §2, §3, §4

Chain of ΔF508 cystic fibrosis transmembrane conductance regulator protein (CFTR) (P13569 with tags, fused parts or gaps DEL508-508): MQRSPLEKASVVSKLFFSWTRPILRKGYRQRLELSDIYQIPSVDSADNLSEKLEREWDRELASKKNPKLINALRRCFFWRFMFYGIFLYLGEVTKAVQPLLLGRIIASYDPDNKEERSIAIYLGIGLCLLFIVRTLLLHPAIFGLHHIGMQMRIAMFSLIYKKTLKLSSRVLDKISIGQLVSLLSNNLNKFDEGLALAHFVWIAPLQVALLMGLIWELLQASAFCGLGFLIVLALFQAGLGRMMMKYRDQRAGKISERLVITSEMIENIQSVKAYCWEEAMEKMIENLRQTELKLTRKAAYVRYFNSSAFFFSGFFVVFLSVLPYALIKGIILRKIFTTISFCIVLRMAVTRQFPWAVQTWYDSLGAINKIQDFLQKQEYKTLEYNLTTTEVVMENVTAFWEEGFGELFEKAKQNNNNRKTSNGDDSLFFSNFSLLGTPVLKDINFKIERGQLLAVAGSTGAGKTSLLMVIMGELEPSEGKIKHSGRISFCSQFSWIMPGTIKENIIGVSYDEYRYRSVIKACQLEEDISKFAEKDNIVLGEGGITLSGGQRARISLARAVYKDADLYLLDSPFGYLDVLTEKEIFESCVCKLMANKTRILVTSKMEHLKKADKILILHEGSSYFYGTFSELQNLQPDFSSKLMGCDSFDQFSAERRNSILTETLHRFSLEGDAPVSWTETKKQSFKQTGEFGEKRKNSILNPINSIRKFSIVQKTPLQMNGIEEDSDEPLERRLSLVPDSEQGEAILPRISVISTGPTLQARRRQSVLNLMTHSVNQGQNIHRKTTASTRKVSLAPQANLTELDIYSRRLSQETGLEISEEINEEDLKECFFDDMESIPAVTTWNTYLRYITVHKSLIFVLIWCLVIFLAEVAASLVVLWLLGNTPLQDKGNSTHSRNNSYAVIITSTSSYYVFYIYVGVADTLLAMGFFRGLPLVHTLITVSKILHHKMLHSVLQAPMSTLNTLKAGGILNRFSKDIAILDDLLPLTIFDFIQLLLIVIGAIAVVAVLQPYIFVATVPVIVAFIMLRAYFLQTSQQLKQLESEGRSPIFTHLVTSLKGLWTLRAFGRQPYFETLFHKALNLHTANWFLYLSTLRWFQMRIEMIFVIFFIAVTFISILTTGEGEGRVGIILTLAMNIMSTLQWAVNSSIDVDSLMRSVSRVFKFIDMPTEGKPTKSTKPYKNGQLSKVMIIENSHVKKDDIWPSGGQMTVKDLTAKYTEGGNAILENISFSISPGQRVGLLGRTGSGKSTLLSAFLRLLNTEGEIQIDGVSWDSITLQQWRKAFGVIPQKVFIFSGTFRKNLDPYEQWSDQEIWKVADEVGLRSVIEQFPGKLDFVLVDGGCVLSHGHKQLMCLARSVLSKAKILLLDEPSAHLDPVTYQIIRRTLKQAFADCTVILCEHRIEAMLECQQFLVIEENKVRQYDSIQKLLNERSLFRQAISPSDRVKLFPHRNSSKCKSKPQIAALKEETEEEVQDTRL

Row | Compound | restoration of forskolin-dependent chloride transport [1] | ability to effect secretion of mutant myocilin (mutant (Q368X) myocilin) | ability to effect secretion of mutant myocilin (mutant (Y437H) myocilin)
1 | OCC(O)CO [Glycerol, glycerol] | restored the ability of the mutant cells to exhibit forskolin-dependent chloride transport | able to effect full-length myocilin secretion | able to effect full-length myocilin secretion
2 | [2H]O[2H] [deuterated water] | restored the ability of the mutant cells to exhibit forskolin-dependent chloride transport | – | –
3 | C[N+](C)(C)[O-] [trimethylamine N-oxide] | restored the ability of the mutant cells to exhibit forskolin-dependent chloride transport | – | –
4 | Gentamycin | – | did not effect secretion of mutant myocilin | did not effect secretion of mutant myocilin
